Measurements reported in patent US20220281860A1, “COMPOUNDS AND METHODS OF TREATING RNA-MEDIATED DISEASES” (Arrakis Therapeutics, Inc., priority 2016, published 2022).

Tests used:
RNA3WJ_3.0.0_5IB_3FAM = experiment: Thermal shift binding assay; conditions: 1 μM RNA, 8 μM compound
Excerpt: (§1) Purpose: Test binding of compounds for RNA three way junction (for example, a construct of 38 nt). Thermal shift assay based on established fluorescence quenching assay utilizing FAM as fluorescence tag and Iowa Black as quencher. Tags were attached at the 3′ and 5′ end, respectively. Stable formation of 3WJ upon compound binding would lead to quenching of the FAM fluorescence due to close proximity of the Iowa Black tag. Thermal unfolding leads to increase of fluorescence emission. Assay readout: FAM (465-510 nm) Thermal Shift.
(§2) Assay sample buffer used: 10 mM CacoK pH 7.2, 30 mM NaCl. Buffer preparation in Dnase/Rnase Free distilled water (Gibco Life Technologies).
(§3) Tool compounds provided as dry powder are prepared as 50 mM stock solution in 100% d6-DMSO. Stock solutions of 50 mM concentration in d6-DMSO are stored at RT.
(§4) Sample plate: Roche, Light Cycler480 Multiwell Plate96, white, REF 04729692001. (Dilution plate: Greiner REF 781101, PS-Microplate, 384 well, clear). Thermal Shift device: Roche, Light Cycler480.
(§5) Daily fresh (10 ml): 1 ml 100 mM CacoK pH 7.2 and 0.3 ml 1 M NaCl filled up to 10 ml with Dnase/Rnase Free distilled water.
(§6) Dilute the RNA 1:10 (final 10 μM) in Assay Buffer.
(§7) Heat up the diluted RNA up to 90° C. for 5 min (sealed Eppendorf Tube).
(§8) Cool down the RNA probe slowly to RT.
(§9) Dilute the compounds to 800 μM in DMSO (Assay: 8 μM).
(§10) 78.4 μL Assay Buffer are pipetted into Greiner REF 781101, PS-Microplate, 384 (each well needed).
(§11) Add 0.8 μL of the RNA-Solution ([…]).
Add 0.8 μL Compound-Solution ([…]). […]
(§12) Pipet 20 μL Sample Solution into Roche, Light Cycler480 Multiwell Plate96, white, REF 04729692001.
(§13) When sample transfer is finished, seal the plate with a clear topseal (part of REF 04729692001).
(§14) Centrifuge the plate with a table-top device to spin down the samples.
(§15) Measure the 96 plate with the LightCycler480 (Channel: 480/510 nm; Temperature: 41-91° C.).
(§16) Analyse measurement-data with the MeltingCurveGenotyping Mode.
(§17) Settings: Acquisition mode: continuous; Ramp rate: 0.1 C.°/sec; Acquisition: 6/C.° Melt Curve Genotyping for All Samples
(§18) Melting curves analysis show melting temperature (Tm) of ˜51° C. Range of RNA concentrations was tested and assay window was determined (conc. range of 0.5-1 μM yields best results). The choice of buffer also affected the Tm. RNA constructs were tested under different buffer conditions (especially in presence of salt) in the thermal shift assay. […] CacoK with 30 mM salt at 1 μM RNA conc. was used to assess compound effects on 3WJ stability. […] These conditions were used for screening test compounds.

[1] = tested on: RNA3WJ_0.0.0_5IB_3FAM (3WJ_0.0.0_5IB_3FAM) RNA three way junction; experiment: Thermal shift binding assay; conditions: RNA3WJ_0.0.0_5IB_3FAM; 1 μM RNA, 8 μM compound, 1% DMSO; 10 mM CacoK pH 7.2, 30 mM NaCl
Excerpt: as §1, §2, §3, §4, §5, §6, §7, §8, §9, §10, §11
(§19) Add 0.8 μL Compound-Solution ([…]).
(§20) Final concentrations in the sample: 1 μM RNA, 8 μM compound, 1% DMSO
as §12, §13, §14, §15, §16, §17, §18

RNA3WJ_2.0.0_5IB_3FAM = experiment: Thermal shift binding assay; conditions: 1 μM RNA, 8 μM compound
Excerpt: as §1, §2, §3, §4, §5, §6, §7, §8, §9, §10, §11, §19, §20, §12, §13, §14, §15, §16, §17, §18

RNA3WJ_1.1.1_5IB_3FAM = experiment: Thermal shift binding assay; conditions: 1 μM RNA, 8 μM compound
Excerpt: as §1, §2, §3, §4, §5, §6, §7, §8, §9, §10, §11, §19, §20, §12, §13, §14, §15, §16, §17, §18

RNA3WJ_1.1.0_5IB_3FAM = experiment: Thermal shift binding assay; conditions: 1 μM RNA, 8 μM compound
Excerpt: as §1, §2, §3, §4, §5, §6, §7, §8, §9, §10, §11, §19, §20, §12, §13, §14, §15, §16, §17, §18

RNA3WJ_2.1.0_5IB_3FAM = experiment: Thermal shift binding assay; conditions: 1 μM RNA, 8 μM compound
Excerpt: as §1, §2, §3, §4, §5, §6, §7, §8, §9, §10, §11, §19, §20, §12, §13, §14, §15, §16, §17, §18

[2] = tested on: Split3WJ.2 up_5IB+Split3WJ.2_down_3FAM (trans 3WJ as 1:1 mix); experiment: Fluorescence quenching binding assay; conditions: trans 3WJ Split3WJ.2; two concentration points; FIG. 109
Protocol: (§21) This assay will be used to test binding of compounds for RNA three way junction (such as a 38 nt construct). This is a fluorescence quenching assay utilizing FAM as fluorescence tag and Iowa Black as quencher. Tags are attached at the 3′ and 5′ end, respectively. Stable formation of MW upon compound binding would lead to quenching of the FAM fluorescence due to close proximity of the Iowa Black tag. Assay readout: FAM (485-520 nm) Fluorescence Intensity.
as §2, §3
(§22) Sample plate: Greiner cat #784076, black, 384 (Dilution plate: Greiner REF 781101, PS-Microplate, 384 well, clear). Fluorescence Intensity device: Envision 1040285
(§23) Daily fresh (10 ml): 1 ml 100 mM CacoK pH 7.2 and 0.3 ml 1 M NaCl filled up to 10 ml with Dnase/Rnase Free distilled water […]
(§24) Calibration of the expected fluorescence signal at various RNA concentrations in either CacoK or NaPO4 buffers was performed first. Experiments in buffers containing salt show distinct fluorescence quenching behavior. […]
(§25) The fluorescence quenching experiment was repeated for compounds Ark0000013 and Ark0000014 to measure binding with: […]

[3] = tested on: RNA3WJ_1.0.0_5IB_3FAM (cis 3WJ with one unpaired nucleotide); experiment: Fluorescence quenching binding assay; conditions: cis 3WJ RNA3WJ_1.0.0_5IB_3FAM; two concentration points; FIG. 109
Protocol: as §21, §2, §3, §22, §23, §24, §25

Structure (SMILES): CN(CCCN)CCCNC(=O)c1ccc2c(c1)C1c3cc(C(=O)NCCCN(C)CCCN)ccc3C2c2ccc(C(=O)NCCCN(C)CCCN)cc21 [Ark0000013, N^2,N^7,N^15-tris(3-((3-aminopropyl)(methyl)amino)propyl)-9,10-dihydro-9,10-[1,2]benzenoanthracene-2,7,15-tricarboxamide]
- Melting temp [° C.] + cmpd (RNA3WJ_3.0.0_5IB_3FAM): 83.7 °C
- Temp. Shift [° C.] (RNA3WJ_3.0.0_5IB_3FAM): 21.7 °C
- Melting temp [° C.] + cmpd [1]: 84.1 °C
- Temp. Shift [° C.] [1]: 24.2 °C
- Melting temp [° C.] + cmpd (RNA3WJ_2.0.0_5IB_3FAM): 84.3 °C
- Temp. Shift [° C.] (RNA3WJ_2.0.0_5IB_3FAM): 22.1 °C
- Melting temp [° C.] + cmpd (RNA3WJ_1.1.1_5IB_3FAM): 82.9 °C
- Temp. Shift [° C.] (RNA3WJ_1.1.1_5IB_3FAM): 20.7 °C
- Melting temp [° C.] + cmpd (RNA3WJ_1.1.0_5IB_3FAM): 85.5 °C
- Temp. Shift [° C.] (RNA3WJ_1.1.0_5IB_3FAM): 22.2 °C
- Melting temp [° C.] + cmpd (RNA3WJ_2.1.0_5IB_3FAM): 45.7 °C
- Temp. Shift [° C.] (RNA3WJ_2.1.0_5IB_3FAM): 3.8 °C
- Effect in fluorescence quenching assay [2]: significant concentration dependent effect
- Effect in fluorescence quenching assay [3]: significant concentration dependent effect

Structure (SMILES): NCCCCCCCNC(=O)c1ccc2c(c1)C1c3cc(C(=O)NCCCCCCCN)ccc3C2c2ccc(C(=O)NCCCCCCCN)cc21 [Ark0000014, N^2,N^7,N^15-tris(7-aminoheptyl)-9,10-dihydro-9,10-[1,2]benzenoanthracene-2,7,15-tricarboxamide]
- Melting temp [° C.] + cmpd (RNA3WJ_3.0.0_5IB_3FAM): 63.9 °C
- Temp. Shift [° C.] (RNA3WJ_3.0.0_5IB_3FAM): 1.9 °C
- Melting temp [° C.] + cmpd [1]: 61.5 °C
- Temp. Shift [° C.] [1]: 1.6 °C
- Melting temp [° C.] + cmpd (RNA3WJ_2.0.0_5IB_3FAM): 64.4 °C
- Temp. Shift [° C.] (RNA3WJ_2.0.0_5IB_3FAM): 2.2 °C
- Melting temp [° C.] + cmpd (RNA3WJ_1.1.1_5IB_3FAM): 64.3 °C
- Temp. Shift [° C.] (RNA3WJ_1.1.1_5IB_3FAM): 2.1 °C
- Melting temp [° C.] + cmpd (RNA3WJ_1.1.0_5IB_3FAM): 65.1 °C
- Temp. Shift [° C.] (RNA3WJ_1.1.0_5IB_3FAM): 1.8 °C
- Melting temp [° C.] + cmpd (RNA3WJ_2.1.0_5IB_3FAM): 42.0 °C
- Temp. Shift [° C.] (RNA3WJ_2.1.0_5IB_3FAM): 0.1 °C
- Effect in fluorescence quenching assay [2]: smaller effect on the RNA constructs (Split3WJ_2 shows larger effect)
- Effect in fluorescence quenching assay [3]: smaller effect
